Each structure is given as a SMILES string. Structures can show the parent of a compound that is named as a salt. Where two headings read alike, the source gives them in different places.

This experiment deals with T1, Cdc7/Dbf4 complex (Homo sapiens, UniProt O00311).
T1 construct: Full-length Cdc7 co-expressed with full-length Dbf4; purchased Carna Biosciences (Kobe)
Briefly: Measurement of Cdc7 kinase inhibitory activity (Transcreener ADP HTRF assay). The format is biochemical. As for the experimental part:
Full-length Cdc7 co-expressed with full-length Dbf4 was purchased from Carna Biosciences (Kobe). The enzyme activity of Cdc7/Dbf4 complex was detected by homogeneous time-resolved fluorescence method Transcreener ADP assay (Cisbio Inc., MA, U.S.A.). […] Free ADP produced by ATP hydrolysis was detected by Eu^3+-Cryptate-labeled anti-ADP monoclonal antibody competitively with d2-labeled ADP, and the production amount thereof was measured. The obtained time-resolved fluorescence resonance energy transfer signal was measured by EnVision (Perkin Elmer Inc., MA, U.S.A.). The inhibitory rate (%) of the test compound to Cdc7 was calculated by the following formula. Inhibitory rate(%)=(1−(count of test compound-blank)[…](control-blank))×100
The count of the Cdc7/Dbf4 reaction mixture under compound-free conditions was taken as the control, and that under compound-free and Cdc7/Dbf4-free conditions was taken as the blank.
Background: TR-FRET usually uses a lanthanide donor and a delayed reading to cut background.

Where [1] appears, read: test compound 1 μM, Cdc7/Dbf4, 1.0 μm ATP, 10 μg/ml MCM2, read-out: inhibitory rate (%) at 1 μM.
Setting [2] is: read-out: inhibitory rate (%) at 1 μM.
Where [3] appears, read: read-out: inhibitory rate (%) at 1 μM, test compound 1 μM, Cdc7/Dbf4, 1.0 μm ATP, 10 μg/ml MCM2.

T1 sequence (O00311 whole entry): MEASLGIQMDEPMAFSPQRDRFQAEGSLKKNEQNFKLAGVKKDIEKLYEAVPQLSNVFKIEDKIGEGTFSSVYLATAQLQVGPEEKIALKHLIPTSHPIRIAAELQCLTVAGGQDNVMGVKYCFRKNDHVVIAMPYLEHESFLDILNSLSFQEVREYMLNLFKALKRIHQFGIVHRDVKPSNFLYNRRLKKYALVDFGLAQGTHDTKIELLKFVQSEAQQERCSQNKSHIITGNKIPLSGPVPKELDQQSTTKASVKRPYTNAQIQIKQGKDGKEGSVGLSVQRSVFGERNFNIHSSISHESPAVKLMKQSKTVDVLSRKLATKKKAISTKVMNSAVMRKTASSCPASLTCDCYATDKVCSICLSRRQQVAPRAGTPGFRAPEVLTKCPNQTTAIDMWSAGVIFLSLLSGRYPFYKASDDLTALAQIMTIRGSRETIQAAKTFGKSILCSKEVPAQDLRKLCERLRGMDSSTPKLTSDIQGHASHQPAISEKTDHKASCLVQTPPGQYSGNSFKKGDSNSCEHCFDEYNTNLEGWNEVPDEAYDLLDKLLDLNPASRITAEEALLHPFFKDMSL
T1 sequence (Q9UBU7 whole entry partner): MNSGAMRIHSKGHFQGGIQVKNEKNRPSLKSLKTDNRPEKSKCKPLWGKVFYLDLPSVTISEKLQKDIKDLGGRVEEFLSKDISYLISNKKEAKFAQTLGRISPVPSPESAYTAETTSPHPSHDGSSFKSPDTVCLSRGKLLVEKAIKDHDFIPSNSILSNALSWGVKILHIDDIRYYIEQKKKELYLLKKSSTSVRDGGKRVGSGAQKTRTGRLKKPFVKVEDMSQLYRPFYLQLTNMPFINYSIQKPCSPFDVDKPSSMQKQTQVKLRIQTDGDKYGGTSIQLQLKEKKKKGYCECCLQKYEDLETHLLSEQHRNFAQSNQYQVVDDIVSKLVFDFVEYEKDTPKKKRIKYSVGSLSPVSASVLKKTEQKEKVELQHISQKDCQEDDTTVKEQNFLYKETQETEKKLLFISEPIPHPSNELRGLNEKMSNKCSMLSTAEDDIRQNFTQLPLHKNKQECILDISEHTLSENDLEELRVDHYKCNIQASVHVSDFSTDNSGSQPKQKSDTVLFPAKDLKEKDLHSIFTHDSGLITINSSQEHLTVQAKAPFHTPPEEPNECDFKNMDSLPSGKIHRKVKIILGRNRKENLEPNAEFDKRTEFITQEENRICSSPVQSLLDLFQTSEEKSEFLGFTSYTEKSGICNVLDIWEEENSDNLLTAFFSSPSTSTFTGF

Turning to `Cc1[nH]ncc1-c1cc2nc([C@@H]3NC[C@@H]4C[C@@H]43)[nH]c(=O)c2s1` [Example 112, 2-[(1S,2R,5R)-3-azabicyclo[3.1.0]hex-2-yl]-6-(5-methyl-1H-pyrazol-4-yl)thieno[3,2-d]pyrimidin-4 (3H)-one dihydrochloride], the inhibition at 1 µM under setting [1] stood at 105%.

Consider `CNCc1nc2cc(-c3cn[nH]c3C)sc2c(=O)[nH]1` [Example 133, 2-[(methylamino)methyl]-6-(5-methyl-1H-pyrazol-4-yl)thieno[3,2-d]pyrimidin-4 (3H)-one dihydrochloride], for which the inhibition at 1 µM under setting [1] was 107%.

On to `Cc1[nH]ncc1-c1cc2nc(C3CCCCCN3)[nH]c(=O)c2s1` (stereo not drawn) [Example 79, 2-(azepan-2-yl)-6-(5-methyl-1H-pyrazol-4-yl)thieno[3,2-d]pyrimidin-4 (3H)-one], for which the inhibition at 1 µM under setting [2] stood at 93.3%.

On to `Cc1[nH]ncc1-c1cc2nc([C@@H]3C[C@H](C)CN3)[nH]c(=O)c2s1` [Example 92, 6-(5-methyl-1H-pyrazol-4-yl)-2-[(2S,4S)-4-methylpyrrolidin-2-yl]thieno[3,2-d]pyrimidin-4 (3H)-one dihydrochloride], for which the inhibition at 1 µM under setting [2] worked out at 108%.

With `Cc1[nH]ncc1-c1cc2nc([C@H]3CC=CCN3)[nH]c(=O)c2s1` [Example 146, 6-(5-methyl-1H-pyrazol-4-yl)-2-[(2R)-1,2,3,6-tetrahydropyridin-2-yl]thieno[3,2-d]pyrimidin-4 (3H)-one dihydrochloride], under setting [3], the inhibition at 1 µM came to 108%.

With `Cc1[nH]ncc1-c1cc2nc([C@@H]3CCCCN3)[nH]c(=O)c2s1` [Example 172, 6-(5-methyl-1H-pyrazol-4-yl)-2-[(2S)-piperidin-2-yl]thieno[3,2-d]pyrimidin-4 (3H)-one hydrochloride], for the setting “test compound 1 μM, Cdc7/Dbf4, 1.0 μm ATP, 10 μg/ml MCM2, hydrochloride”, the “inhibitory rate (%) at 1 μM” value was 102%.

As to `Cc1[nH]ncc1-c1cc2nc(C3CCCCN3)[nH]c(=O)c2s1` (stereo not drawn) [Example 71, 6-(5-methyl-1H-pyrazol-4-yl)-2-(piperidin-2-yl)thieno[3,2-d]pyrimidin-4 (3H)-one dihydrochloride], the inhibition at 1 µM under setting [3] stood at 109%.

Take `Cc1[nH]ncc1-c1cc2nc(C(C)(C)N)[nH]c(=O)c2s1` [Example 135, 2-(1-amino-1-methylethyl)-6-(5-methyl-1H-pyrazol-4-yl)thieno[3,2-d]pyrimidin-4 (3H)-one dihydrochloride]: under setting [1], the inhibition at 1 µM is 111%.

Turning to `Cc1[nH]ncc1-c1cc2nc([C@@H]3CCC(C)(C)N3)[nH]c(=O)c2s1` [Example 76, 2-[(2S)-5,5-dimethylpyrrolidin-2-yl]-6-(5-methyl-1H-pyrazol-4-yl)thieno[3,2-d]pyrimidin-4 (3H)-one], the inhibition at 1 µM under setting [2] amounted to 106%.

Take `Cc1[nH]ncc1-c1cc2nc(C3COCCN3)[nH]c(=O)c2s1` (stereo not drawn) [Example 72, 6-(5-methyl-1H-pyrazol-4-yl)-2-(morpholin-3-yl)thieno[3,2-d]pyrimidin-4 (3H)-one dihydrochloride]: the inhibition at 1 µM under setting [1] was found to be 102%.

Take `Cc1[nH]ncc1-c1cc2nc([C@@H]3CCCCN3)[nH]c(=O)c2s1` [Example 174, 6-(5-methyl-1H-pyrazol-4-yl)-2-[(2S)-piperidin-2-yl]thieno[3,2-d]pyrimidin-4 (3H)-one]: the “inhibitory rate (%) at 1 μM” value (test compound 1 μM, Cdc7/Dbf4, 1.0 μm ATP, 10 μg/ml MCM2) is 104%.

For `Cc1[nH]ncc1-c1cc2nc(C34CC(CN3)C4)[nH]c(=O)c2s1` [Example 148, 2-(2-azabicyclo[2.1.1]hex-1-yl)-6-(5-methyl-1H-pyrazol-4-yl)thieno[3,2-d]pyrimidin-4 (3H)-one hydrochloride], the inhibition at 1 µM under setting [2] is 102%.

On to `Cc1[nH]ncc1-c1cc2nc([C@H]3CCCC[C@@H]3N)[nH]c(=O)c2s1` (relative stereo) [Example 129, 2-[(1R*,2R*)-2-aminocyclohexyl]-6-(5-methyl-1H-pyrazol-4-yl)thieno[3,2-d]pyrimidin-4 (3H)-one dihydrochloride], for which the inhibition at 1 µM under setting [1] was 108%.

Consider `O=c1[nH]c(C23CC(CN2)C3)nc2cc(-c3cn[nH]c3C(F)(F)F)sc12` [Example 165, 2-(2-azabicyclo[2.1.1]hex-1-yl)-6-[5-(trifluoromethyl)-1H-pyrazol-4-yl]thieno[3,2-d]pyrimidin-4 (3H)-one dihydrochloride], for which, under setting [1], the inhibition at 1 µM came out at 105%.

With `O=c1[nH]c(CN2CCCC2)nc2cc(-c3cn[nH]c3C(F)(F)F)sc12` [Example 143, 2-(pyrrolidin-1-ylmethyl)-6-[5-(trifluoromethyl)-1H-pyrazol-4-yl]thieno[3,2-d]pyrimidin-4 (3H)-one], under setting [1], the inhibition at 1 µM came to 122%.

For `Cc1[nH]ncc1-c1cc2nc(C3C[C@@H]4CCC[C@@H]4N3)[nH]c(=O)c2s1` (stereo partly drawn) [Example 123, 6-(5-methyl-1H-pyrazol-4-yl)-2-[(3aS,6aS)-octahydrocyclopenta[b]pyrrol-2-yl]thieno[3,2-d]pyrimidin-4 (3H)-one], under setting [1], the inhibition at 1 µM came out at 97%.

With `Cc1[nH]ncc1-c1cc2nc(C3CCCC3N)[nH]c(=O)c2s1` (stereo not drawn) [Example 139, 2-(2-aminocyclopentyl)-6-(5-methyl-1H-pyrazol-4-yl)thieno[3,2-d]pyrimidin-4 (3H)-one dihydrochloride], the inhibition at 1 µM under setting [1] is 106%.

Regarding `Cc1[nH]ncc1-c1cc2nc([C@H]3CCCCCN3)[nH]c(=O)c2s1` [Example 101, 2-[(2R)-azepan-2-yl]-6-(5-methyl-1H-pyrazol-4-yl)thieno[3,2-d]pyrimidin-4 (3H)-one], the inhibition at 1 µM under setting [2] was determined as 96.2%.

With `Cc1[nH]ncc1-c1cc2nc([C@H]3NC[C@H]4C[C@H]43)[nH]c(=O)c2s1` [Example 113, 2-[(1R,2S,5S)-3-azabicyclo[3.1.0]hex-2-yl]-6-(5-methyl-1H-pyrazol-4-yl)thieno[3,2-d]pyrimidin-4 (3H)-one dihydrochloride], under setting [1], the inhibition at 1 µM came to 124%.

For the compound `Cc1[nH]ncc1-c1cc2nc([C@H]3NC4CCC3CC4)[nH]c(=O)c2s1` [Example 108, 2-[(3S)-2-azabicyclo[2.2.2]oct-3-yl]-6-(5-methyl-1H-pyrazol-4-yl)thieno[3,2-d]pyrimidin-4 (3H)-one dihydrochloride], under setting [1], the inhibition at 1 µM was found to be 103%.

Turning to `Cc1[nH]ncc1-c1cc2nc(C3CCCC3N)[nH]c(=O)c2s1` (single isomer, unassigned) [Example 137, 2-(2-aminocyclopentyl)-6-(5-methyl-1H-pyrazol-4-yl)thieno[3,2-d]pyrimidin-4 (3H)-one dihydrochloride], the inhibition at 1 µM under setting [1] stood at 97%.

With `Cc1[nH]ncc1-c1cc2nc([C@H]3NC[C@@H]4C[C@@H]43)[nH]c(=O)c2s1` (relative stereo) [Example 110, 2-[(1S*,2S*,5R*)-3-azabicyclo[3.1.0]hex-2-yl]-6-(5-methyl-1H-pyrazol-4-yl)thieno[3,2-d]pyrimidin-4 (3H)-one dihydrochloride], the inhibition at 1 µM under setting [1] was determined as 100%.

In the case of `Cc1[nH]ncc1-c1cc2nc([C@@H]3CCCCCN3)[nH]c(=O)c2s1` [Example 102, 2-[(2S)-azepan-2-yl]-6-(5-methyl-1H-pyrazol-4-yl)thieno[3,2-d]pyrimidin-4 (3H)-one], the inhibition at 1 µM under setting [2] stood at 95.9%.

Consider `Cc1[nH]ncc1-c1cc2nc([C@]3(C)CCCN3)[nH]c(=O)c2s1` [Example 103, 6-(5-methyl-1H-pyrazol-4-yl)-2-[(2S)-2-methylpyrrolidin-2-yl]thieno[3,2-d]pyrimidin-4 (3H)-one dihydrochloride], for which the inhibition at 1 µM under setting [3] worked out at 96.7%.
